These results are taken from patent US20250092065A1, “2-(INDAZOL-5-YL)-6-(PIPERIDIN-4-YL)-1,7-NAPHTHYRIDINE DERIVATIVES AND RELATED COMPOUNDS AS MODULATORS FOR SPLICING NUCLEIC ACIDS AND FOR THE TREATMENT OF PROLIFERATIVE DISEASES” (REMIX THERAPEUTICS INC., priority 2022, published 2025).

This assay concerns HTT mRNA. Put plainly: RT-qPCR splicing assay, HTT mRNA canonical (CJ) and alternative (AJ) junction. The format is cell-based, human. The following applies: Homo sapiens; for AC50: HTT alternative junction mRNA, read-out: HTT AJ (increase in AJ mRNA, AC50). The procedure, abridged: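 Both isoforms, CJ and AJ, read by qPCR from crude lysates of treated A673 or K562 cells; 24 h, 37 °C, maximum 10 uM. Normalization: housekeeper ΔCt, then DMSO ΔΔCt.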
A general note: In qPCR the cycle at which signal appears reflects the starting amount.

The mark [1] stands for this setting: HTT canonical junction mRNA, RT-qPCR, read-out: HTT CJ (decrease in CJ mRNA levels, IC50).
Where [2] appears, read: canonical junction qPCR panel, Table 4, read-out: HTT IC50 (decrease in CJ mRNA levels).

Molecules are shown by their SMILES. pIC50: −log10 of the molar value. Like-named read-outs stand apart in the source and are kept apart here. Where only a bound is given, the exact number is not on record here.

The AC50 is the concentration at which the activity in the assay is half-maximal. In general, pIC50 refers to the IC50 on a negative log10 scale, so that one unit is a factor of ten.

Consider `Cn1cc2cc(-c3nc(C4CC4)c4cc(N5CCNCC5)ccc4n3)c(O)c(F)c2n1` [Compound 518, 5-[4-cyclopropyl-6-(piperazin-1-yl)quinazolin-2-yl]-7-fluoro-2-methylindazol-6-ol; trifluoroacetic acid], for which, for the setting “RT-qPCR”, the AC50 lay in the range of 1000 to 10000 nM. Moreover, the pIC50 under setting [1] was 5.00 to 6.00 and the pIC50 under setting [2] was 5.00 to 6.00.
In the case of `Cc1c(O)c(-c2nc(-c3cncs3)c3cc(N4CCNCC4)ccc3n2)cc2cn(C)nc12` [Compound 519, 2,7-dimethyl-5-[6-(piperazin-1-yl)-4-(1,3-thiazol-5-yl)quinazolin-2-yl]indazol-6-ol], the AC50 (RT-qPCR) was > 10000 nM. Also, the pIC50 reads like this: under setting [1], < 5.00; under setting [2], < 5.00.
On to `Cc1c(O)c(-c2ncc3cc(N4CCNCC4)ccc3n2)cc2cn(C)nc12` [Compound 520, 2,7-dimethyl-5-[6-(piperazin-1-yl)quinazolin-2-yl]indazol-6-ol], for which the AC50 (RT-qPCR) lay in the range of 100 to 1000 nM. Moreover, the pIC50 is, setting by setting: under setting [1], 6.00 to 7.00; under setting [2], 6.00 to 7.00.
Regarding `Cc1c(O)c(-c2nc(-c3nnc[nH]3)c3cc(N4CCNCC4)ccc3n2)cc2cn(C)nc12` [Compound 522, 2,7-dimethyl-5-[6-(piperazin-1-yl)-4-(4H-1,2,4-triazol-3-yl)quinazolin-2-yl]indazol-6-ol; bis(trifluoroacetic acid)], the AC50 (RT-qPCR) was > 10000 nM. The pIC50 was 5.00 to 6.00 under setting [1] and 5.00 to 6.00 under setting [2].
With `Cc1c(O)c(-c2nc(C(N)=O)c3cc(N4CCNCC4)ccc3n2)cc2cn(C)nc12` [Compound 523, 2-(6-hydroxy-2,7-dimethylindazol-5-yl)-6-(piperazin-1-yl) quinazoline-4-carboxamide], the AC50 (RT-qPCR) fell in the range of 100 to 1000 nM. For the same compound, the pIC50 reads like this: under setting [1], 6.00 to 7.00; under setting [2], 6.00 to 7.00.
Take `Cc1c(O)c(-c2nc(C(=O)O)c3cc(N4CCNCC4)ccc3n2)cc2cn(C)nc12` [Compound 524, 2-(6-hydroxy-2,7-dimethylindazol-5-yl)-6-(piperazin-1-yl) quinazoline-4-carboxylic acid]: the AC50 (RT-qPCR) is > 10000 nM. For the same compound, the pIC50 is, setting by setting: under setting [1], < 5.00; under setting [2], < 5.00.
For the compound `Cc1c(O)c(-c2ncc3cc(N4C[C@@H](C)N[C@@H](C)C4)ccc3n2)cc2cn(C)nc12` [Compound 525, 5-{6-[(3R,5S)-3,5-dimethylpiperazin-1-yl]quinazolin-2-yl}-2,7-dimethylindazol-6-ol], for the setting “RT-qPCR”, the AC50 lay within 100 to 1000 nM. The pIC50 is, setting by setting: under setting [1], 6.00 to 7.00; under setting [2], 6.00 to 7.00.
`Cc1c(O)c(-c2ncc3nc(N4C[C@@H](C)N[C@@H](C)C4)ccc3n2)cc2cn(C)nc12` [Compound 526, 5-{6-[(3R,5S)-3,5-dimethylpiperazin-1-yl]pyrido[3,2-d]pyrimidin-2-yl}-2,7-dimethylindazol-6-ol]: the concentration at half-maximal activity (AC50) (RT-qPCR) lay within 1000 to 10000 nM. Also, the pIC50 by setting is: under setting [1], 6.00 to 7.00; under setting [2], 6.00 to 7.00.
`CNC(=O)c1nc(-c2cc3cn(C)nc3c(F)c2O)nc2ccc(N3C[C@@H](C)N[C@@H](C)C3)cc12` [Compound 527, 6-[(3R,5S)-3,5-dimethylpiperazin-1-yl]-2-(7-fluoro-6-hydroxy-2-methylindazol-5-yl)-N-methylquinazoline-4-carboxamide]: the AC50 (RT-qPCR) was in the range of 100 to 1000 nM. The pIC50 is, setting by setting: under setting [1], > 7.00; under setting [2], > 7.00.
As for `CNC(=O)c1nc(-c2cc3cn(C)nc3c(F)c2O)nc2ccc(N3CCC(N(C)C)CC3)cc12` [Compound 528, 6-[4-(dimethylamino)piperidin-1-yl]-2-(7-fluoro-6-hydroxy-2-methylindazol-5-yl)-N-methylquinazoline-4-carboxamide], where the note is “RT-qPCR”, the AC50 fell in the range of 1000 to 10000 nM. Besides, the pIC50 was 6.00 to 7.00 under setting [1] and 6.00 to 7.00 under setting [2].
Regarding `CNC(=O)c1nc(-c2cc3cn(C)nc3c(F)c2O)nc2ccc(N3CCN[C@@H](C)C3)cc12` [Compound 529, 2-(7-fluoro-6-hydroxy-2-methylindazol-5-yl)-N-methyl-6-[(3S)-3-methylpiperazin-1-yl]quinazoline-4-carboxamide], the AC50 (RT-qPCR) was 100 to 1000 nM. In addition, the pIC50 by setting is: under setting [1], 6.00 to 7.00; under setting [2], 6.00 to 7.00.
With `CNC(=O)c1nc(-c2cc3cn(C)nc3cc2O)nc2ccc(N3CCN[C@@H](C)C3)cc12` [Compound 530, 2-(6-hydroxy-2-methylindazol-5-yl)-N-methyl-6-[(3S)-3-methylpiperazin-1-yl]quinazoline-4-carboxamide], the AC50 (RT-qPCR) was 1000 to 10000 nM. The pIC50 was 5.00 to 6.00 under setting [1] and 5.00 to 6.00 under setting [2].
Take `CNC(=O)c1nc(-c2cc3cn(C)nc3cc2O)nc2ccc(N3C[C@@H](C)N[C@@H](C)C3)cc12` [Compound 531, 6-[(3R,5S)-3,5-dimethylpiperazin-1-yl]-2-(6-hydroxy-2-methylindazol-5-yl)-N-methylquinazoline-4-carboxamide]: the AC50 (RT-qPCR) is > 10000 nM. Besides, the pIC50 is, setting by setting: under setting [1], 5.00 to 6.00; under setting [2], 5.00 to 6.00.
For the compound `CNC(=O)c1nc(-c2cc3cn(C)nc3c(C)c2O)nc2ccc(N3CCNC4(CC4)C3)cc12` [Compound 532, 6-{4,7-diazaspiro[2.5]octan-7-yl}-2-(6-hydroxy-2,7-dimethylindazol-5-yl)-N-methylquinazoline-4-carboxamide], the AC50 (RT-qPCR) lay in the range of 100 to 1000 nM. Further, the pIC50 under setting [1] was 6.00 to 7.00 and the pIC50 under setting [2] is 6.00 to 7.00.
Regarding `CNC(=O)c1nc(-c2cc3cn(C)nc3c(C)c2O)nc2ccc(N3CCNCC3)nc12` [Compound 533, 2-(6-hydroxy-2,7-dimethylindazol-5-yl)-N-methyl-6-(piperazin-1-yl)pyrido[3,2-d]pyrimidine-4-carboxamide], the AC50 (RT-qPCR) lay within 1000 to 10000 nM. For the same compound, the pIC50 under setting [1] was 5.00 to 6.00 and the negative-log IC50 (pIC50) under setting [2] was 5.00 to 6.00.
Turning to `CNC(=O)c1nc(-c2cc3cn(C)nc3c(C)c2O)nc2ccc(N3C[C@@H](C)N[C@@H](C)C3)nc12` [Compound 534, 6-[(3R,5S)-3,5-dimethylpiperazin-1-yl]-2-(6-hydroxy-2,7-dimethylindazol-5-yl)-N-methylpyrido[3,2-d]pyrimidine-4-carboxamide], where the note is “RT-qPCR”, the half-maximal activity concentration (AC50) was > 10000 nM. In addition, the pIC50 runs as follows: under setting [1], < 5.00; under setting [2], < 5.00.
As to `CCNC(=O)c1nc(-c2cc3cn(C)nc3c(C)c2O)nc2ccc(N3C[C@@H](C)N[C@@H](C)C3)cc12` [Compound 535, 6-[(3R,5S)-3,5-dimethylpiperazin-1-yl]-N-ethyl-2-(6-hydroxy-2,7-dimethylindazol-5-yl)quinazoline-4-carboxamide], under “RT-qPCR”, the AC50 is 100 to 1000 nM. The pIC50 is, setting by setting: under setting [1], > 7.00; under setting [2], > 7.00.
For `CNC(=O)c1nc(-c2cc3cn(C)nc3c(C)c2O)nc2ccc(N3CC[C@@H](NC)C3)cc12` [Compound 536, 2-(6-hydroxy-2,7-dimethylindazol-5-yl)-N-methyl-6-[(3R)-3-(methylamino)pyrrolidin-1-yl]quinazoline-4-carboxamide], under “RT-qPCR”, the AC50 is < 100 nM. The pIC50 under setting [1] is > 7.00 and the pIC50 under setting [2] is > 7.00.
Regarding `CNC(=O)c1nc(-c2cc3cn(C)nc3c(C)c2O)nc2ccc(N3CC[C@H](NC)C3)cc12` [Compound 537, 2-(6-hydroxy-2,7-dimethylindazol-5-yl)-N-methyl-6-[(3S)-3-(methylamino)pyrrolidin-1-yl]quinazoline-4-carboxamide], the AC50 (RT-qPCR) lay within 100 to 1000 nM. For the same compound, the pIC50 was > 7.00 under setting [1] and > 7.00 under setting [2].
